*1 amine or outer side, *2 acyl side, *3 side chain or, on linkers, in order; H or OH if unused. Where a SMILES comes first, the peptide text is derived from it. Bridges are numbered along the chain shown (N, C = ends). The star is where a group is joined. C20 diacid = O=C(O)CCCCCCCCCCCCCCCCCCC(=O)*; γGlu = O=C(O)[C@H](CCC(=O)[*:2])N[*:1]; AEEA = NCCOCCOCC(=O)O
These compounds were tested against T1, Amylin 3(a) receptor (human calcitonin receptor (CTa) and RAMP-3) (Homo sapiens, UniProt O60896+P30988) (assay: Luciferase assay (III), BHK Amylin 3(a)//CRE-luc cells). Conditions: BHK cells with Amylin 3(a) receptor and CRE luciferase reporter, 4 hours incubation; read-out: Potency Luciferase.
T1 construct: expressed in transfected cells; host or cells: BHK570 cells, stably transfected with a CRE-luciferase reporter
T1 sequence (O60896 24-148): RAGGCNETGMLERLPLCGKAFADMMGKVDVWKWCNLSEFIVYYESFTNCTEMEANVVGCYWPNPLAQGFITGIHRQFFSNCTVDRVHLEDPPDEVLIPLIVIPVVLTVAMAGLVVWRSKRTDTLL
T1 sequence (P30988 25-474): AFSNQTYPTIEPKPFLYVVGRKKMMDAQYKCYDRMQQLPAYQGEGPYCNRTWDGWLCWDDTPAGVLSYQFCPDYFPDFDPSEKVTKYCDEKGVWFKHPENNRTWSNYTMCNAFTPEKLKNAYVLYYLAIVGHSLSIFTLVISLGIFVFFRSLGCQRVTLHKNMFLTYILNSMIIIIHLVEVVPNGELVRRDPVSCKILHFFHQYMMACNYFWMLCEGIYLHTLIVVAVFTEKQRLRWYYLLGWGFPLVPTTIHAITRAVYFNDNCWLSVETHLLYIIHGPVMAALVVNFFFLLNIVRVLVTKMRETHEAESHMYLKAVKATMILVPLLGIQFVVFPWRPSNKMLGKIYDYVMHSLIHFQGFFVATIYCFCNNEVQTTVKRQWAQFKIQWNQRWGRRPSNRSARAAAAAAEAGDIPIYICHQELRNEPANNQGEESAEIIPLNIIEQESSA
Assay type: cell-based
From the text: It has previously been published (Poyner D R et al 2002, Pharmacological Reviews 54(2) 233-246) that activation of Amylin receptors (coexpression of Calcitonin receptor and receptor activity modifying peptides RAMPs) by Amylin leads to an increase in the intracellular concentration of cAMP. Consequently, transcription is activated at promoters containing multiple copies of the cAMP response element (CRE). It is thus possible to measure Amylin activity by use of a CRE luciferase reporter gene introduced into BHK cells also expressing an Amylin receptor.
2. Construction of an Amylin 3(a)/CRE-luc Cell Line
A BHK570 cell line stably transfected with the human calcitonin receptor (CTa) and a CRE-responsive luciferase reportergene. The cell line was further transfected with RAMP-3, using standard methods. This turns the Calcitonin receptor into an Amylin 3(a) receptor. Methotrexate, Neomycin, and Hygromycin are selection markers for luciferase, the Calcitonin receptor, and RAMP-3, respectively.
3. Amylin Luciferase Assay
To perform activity assays, BHK Amylin 3(a)//CRE-luc cells were seeded in white 96 well culture plates at a density of about 20,000 cells/well. The cells were in 100 μl growth medium (DMEM with 10% FBS, 1% Pen/Strep, 1 mM Na-pyruvate, 250 nM Methotrexate, 500 μg/ml Neomycin, and 400 μg/ml Hygromycin). After incubation overnight at 37° C. and 5% CO2, the growth medium was replaced by 50 μl/well assay medium (DMEM (without phenol red), Glumamax™, 10% FBS, and 10 mM Hepes, pH 7,4). Further, 50 μl/well of standard or sample in assay buffer were added. After 4 hours incubation at 37° C. and 5% CO2, the assay medium with standard or sample were removed and replaced by 100 μl/well PBS. Further, 100 μl/well LucLite™ was added. The plates were sealed and incubated at room temperature for 30 minutes. Finally, luminescence was measured on a TopCounter (Packard) in SPC (single photon counting) mode.

First: CC[C@H](C)[C@H](NC(=O)[C@@H]1CCCN1C(=O)CNC(=O)[C@H](Cc1ccccc1)NC(=O)[C@H](CC(N)=O)NC(=O)[C@H](CCC(N)=O)NC(=O)[C@H](CO)NC(=O)[C@H](CO)NC(=O)[C@H](Cc1c[nH]cn1)NC(=O)[C@H](Cc1c[nH]cn1)NC(=O)[C@H](CC(C)C)NC(=O)[C@H](Cc1ccccc1)NC(=O)[C@H](CC(N)=O)NC(=O)[C@H](C)NC(=O)[C@H](CC(C)C)NC(=O)[C@H](CCCNC(=N)N)NC(=O)[C@H](CCC(N)=O)NC(=O)[C@@H](NC(=O)[C@H](C)NC(=O)[C@@H]1CSSC[C@H](NC(=O)[C@H](CCCNC(=N)N)NC(=O)[C@H](Cc2c[nH]cn2)NC(=O)[C@H](Cc2c[nH]cn2)NC(=O)COCCOCCNC(=O)CC[C@H](NC(=O)CCCCCCCCCCCCCCCCCCC(=O)O)C(=O)O)C(=O)N[C@@H](CC(N)=O)C(=O)N[C@@H]([C@@H](C)O)C(=O)N[C@@H](C)C(=O)N[C@@H]([C@@H](C)O)C(=O)N1)[C@@H](C)O)C(=O)N[C@@H](CC(C)C)C(=O)N1CCC[C@H]1C(=O)N1CCC[C@H]1C(=O)N[C@H](C(=O)N[C@@H](CC(N)=O)C(=O)N[C@H](C(=O)NCC(=O)N[C@@H](CO)C(=O)N[C@@H](CC(N)=O)C(=O)N[C@H](C(=O)N[C@@H](Cc1ccc(O)cc1)C(N)=O)[C@@H](C)O)C(C)C)[C@@H](C)O [Example 59, N-alpha-[2-(2-{2-[4-(S)-Carboxy-4-(19-carboxynonadecanoylamino)butyrylamino]ethoxy}ethoxy)acetyl]-His-His-[Arg1His17,Gln21]-pramlintide] ({C20 diacid-γGlu-AEEA}-HHRCNTATCATQRLANFLHHSSQNFGPILPPTNVGSNTY-NH2; disulfide 4-9)
Second: CC[C@H](C)[C@H](NC(=O)[C@@H]1CCCN1C(=O)CNC(=O)[C@H](Cc1ccccc1)NC(=O)[C@H](CC(N)=O)NC(=O)[C@H](CC(N)=O)NC(=O)[C@H](CO)NC(=O)[C@H](CO)NC(=O)[C@H](Cc1c[nH]cn1)NC(=O)[C@H](Cc1c[nH]cn1)NC(=O)[C@H](CC(C)C)NC(=O)[C@H](Cc1ccccc1)NC(=O)[C@H](CC(N)=O)NC(=O)[C@H](C)NC(=O)[C@H](CC(C)C)NC(=O)[C@H](CCCNC(=N)N)NC(=O)[C@H](CCC(N)=O)NC(=O)[C@@H](NC(=O)[C@H](C)NC(=O)[C@@H]1CSSC[C@H](NC(=O)[C@H](Cc2c[nH]cn2)NC(=O)[C@H](CCCNC(=N)N)NC(=O)[C@H](Cc2c[nH]cn2)NC(=O)[C@H](CCC(=O)O)NC(=O)CC[C@H](NC(=O)CCCCCCCCCCCCCCCCCCC(=O)O)C(=O)O)C(=O)N[C@@H](CC(N)=O)C(=O)N[C@@H]([C@@H](C)O)C(=O)N[C@@H](C)C(=O)N[C@@H]([C@@H](C)O)C(=O)N1)[C@@H](C)O)C(=O)N[C@@H](CC(C)C)C(=O)N1CCC[C@H]1C(=O)N1CCC[C@H]1C(=O)N[C@H](C(=O)N[C@@H](CC(N)=O)C(=O)N[C@H](C(=O)NCC(=O)N[C@@H](CO)C(=O)N[C@@H](CC(N)=O)C(=O)N[C@H](C(=O)N[C@@H](Cc1ccc(O)cc1)C(N)=O)[C@@H](C)O)C(C)C)[C@@H](C)O [Example 66, N-alpha-[(S)-4-Carboxy-4-(19-carboxynonadecanoylamino)butyryl]-Glu-His-Arg-[His1,His17]-pramlintide] ({C20 diacid-γGlu}-EHRHCNTATCATQRLANFLHHSSNNFGPILPPTNVGSNTY-NH2; disulfide 5-10)
The EC50 of the first is 1.7-fold lower: 60 pM for the first, 100 pM for the second. The first is the more potent here.

Going from CC[C@H](C)[C@H](NC(=O)[C@@H]1CCCN1C(=O)CNC(=O)[C@H](Cc1ccccc1)NC(=O)[C@H](CC(N)=O)NC(=O)[C@H](CC(N)=O)NC(=O)[C@H](CO)NC(=O)[C@H](CO)NC(=O)[C@H](Cc1c[nH]cn1)NC(=O)[C@H](CCCNC(=N)N)NC(=O)[C@H](CC(C)C)NC(=O)[C@H](Cc1ccccc1)NC(=O)[C@H](CC(N)=O)NC(=O)[C@H](C)NC(=O)[C@H](CC(C)C)NC(=O)[C@H](CCCNC(=N)N)NC(=O)[C@H](CCC(N)=O)NC(=O)[C@@H](NC(=O)[C@H](C)NC(=O)[C@@H]1CSSC[C@H](NC(=O)[C@H](CCC(=O)O)NC(=O)[C@H](CCC(=O)O)NC(=O)CC[C@H](NC(=O)CCCCCCCCCCCCCCCCCCC(=O)O)C(=O)O)C(=O)N[C@@H](CC(N)=O)C(=O)N[C@@H]([C@@H](C)O)C(=O)N[C@@H](C)C(=O)N[C@@H]([C@@H](C)O)C(=O)N1)[C@@H](C)O)C(=O)N[C@@H](CC(C)C)C(=O)N1CCC[C@H]1C(=O)N1CCC[C@H]1C(=O)N[C@H](C(=O)N[C@@H](CC(N)=O)C(=O)N[C@H](C(=O)NCC(=O)N[C@@H](CO)C(=O)N[C@@H](CC(N)=O)C(=O)N[C@H](C(=O)N[C@@H](Cc1ccc(O)cc1)C(N)=O)[C@@H](C)O)C(C)C)[C@@H](C)O [Example 49, N-alpha-[(S)-4-Carboxy-4-(19-carboxynonadecanoylamino)butyryl]-Glu-[Glu1,Arg17]-pramlintide] ({C20 diacid-γGlu}-EECNTATCATQRLANFLRHSSNNFGPILPPTNVGSNTY-NH2; disulfide 3-8) to CC[C@H](C)[C@H](NC(=O)[C@@H]1CCCN1C(=O)CNC(=O)[C@H](Cc1ccccc1)NC(=O)[C@H](CC(N)=O)NC(=O)[C@H](CC(N)=O)NC(=O)[C@H](CO)NC(=O)[C@H](CO)NC(=O)[C@H](Cc1c[nH]cn1)NC(=O)[C@H](Cc1c[nH]cn1)NC(=O)[C@H](CC(C)C)NC(=O)[C@H](Cc1ccccc1)NC(=O)[C@H](CC(N)=O)NC(=O)[C@H](C)NC(=O)[C@H](CC(C)C)NC(=O)[C@H](CCCNC(=N)N)NC(=O)[C@H](CCC(N)=O)NC(=O)[C@@H](NC(=O)[C@H](C)NC(=O)[C@@H]1CSSC[C@H](NC(=O)[C@H](CCCCN)NC(=O)CC[C@H](NC(=O)CCCCCCCCCCCCCCCCCCC(=O)O)C(=O)O)C(=O)N[C@@H](CC(N)=O)C(=O)N[C@@H]([C@@H](C)O)C(=O)N[C@@H](C)C(=O)N[C@@H]([C@@H](C)O)C(=O)N1)[C@@H](C)O)C(=O)N[C@@H](CC(C)C)C(=O)N1CCC[C@H]1C(=O)N1CCC[C@H]1C(=O)N[C@H](C(=O)N[C@@H](CC(N)=O)C(=O)N[C@H](C(=O)NCC(=O)N[C@@H](CO)C(=O)N[C@@H](CC(N)=O)C(=O)N[C@H](C(=O)N[C@@H](Cc1ccc(O)cc1)C(N)=O)[C@@H](C)O)C(C)C)[C@@H](C)O [Example 7, N-alpha-[(S)-4-Carboxy-4-(19-carboxynonadecanoylamino)butyryl]-[His17]-pramlintide] ({C20 diacid-γGlu}-KCNTATCATQRLANFLHHSSNNFGPILPPTNVGSNTY-NH2; disulfide 2-7), the EC50 falls from 300 pM to 200 pM (1.5-fold).

CC[C@H](C)[C@H](NC(=O)[C@@H]1CCCN1C(=O)CNC(=O)[C@H](Cc1ccccc1)NC(=O)[C@H](CC(N)=O)NC(=O)[C@H](CCC(N)=O)NC(=O)[C@H](CO)NC(=O)[C@H](CO)NC(=O)[C@H](Cc1c[nH]cn1)NC(=O)[C@H](CCCNC(=N)N)NC(=O)[C@H](CC(C)C)NC(=O)[C@H](Cc1ccccc1)NC(=O)[C@H](CC(N)=O)NC(=O)[C@H](C)NC(=O)[C@H](CC(C)C)NC(=O)[C@H](CCCNC(=N)N)NC(=O)[C@H](CCC(N)=O)NC(=O)[C@@H](NC(=O)[C@H](C)NC(=O)[C@@H]1CSSC[C@H](NC(=O)[C@H](CCCNC(=N)N)NC(=O)[C@H](Cc2c[nH]cn2)NC(=O)[C@H](Cc2c[nH]cn2)NC(=O)[C@H](CCC(=O)O)NC(=O)CC[C@H](NC(=O)CCCCCCCCCCCCCCCCCCC(=O)O)C(=O)O)C(=O)N[C@@H](CC(N)=O)C(=O)N[C@@H]([C@@H](C)O)C(=O)N[C@@H](C)C(=O)N[C@@H]([C@@H](C)O)C(=O)N1)[C@@H](C)O)C(=O)N[C@@H](CC(C)C)C(=O)N1CCC[C@H]1C(=O)N1CCC[C@H]1C(=O)N[C@H](C(=O)N[C@@H](CC(N)=O)C(=O)N[C@H](C(=O)NCC(=O)N[C@@H](CO)C(=O)N[C@@H](CC(N)=O)C(=O)N[C@H](C(=O)N[C@@H](Cc1ccc(O)cc1)C(N)=O)[C@@H](C)O)C(C)C)[C@@H](C)O [Example 68, N-alpha-[(S)-4-Carboxy-4-(19-carboxynonadecanoylamino)butyryl]-Glu-His-His-[Arg1,Arg17,Gln21]-pramlintide] ({C20 diacid-γGlu}-EHHRCNTATCATQRLANFLRHSSQNFGPILPPTNVGSNTY-NH2; disulfide 5-10) showed an EC50 of 100 pM.

— patent publication US8895504B2, “Amylin derivatives” (priority 2008, dated 2014)
